Reference: patent US20040071777A1, “Solid dispersions of nitrate active principles” (priority 2000, published 2004)

Experiments:
Type in all cases: physicochemical
[1] = Dissolution rate of NCX 1022, paddle method, distilled water with 1% w/v Tween 80; details: within one hour
Procedure: The dissolution rate of the active ingredient from the solid dispersion produced in Example 6 has been compared with the dissolution rate of the pure active ingredient, using the paddle method described in F.U.X. In detail, 40 mg of the solid dispersion or 5 mg of pure NCX 1022 have been placed in a thermostated container at 37° C.±0.5° C. in 500 ml of distilled water including 1% w/v of Tween 80 and kept under stirring at 100 rpm. The quantity of NCX 1022 dissolved has been spectrophotometrically determined in continuous at a wavelength of 240 nm.

[2] = Dissolution rate of NCX4016, paddle method (F.U.X.), 1% sodium lauryl sulphate solution; details: 900 ml, 37° C., 150 rpm
Procedure: The dissolution rate of the solid dispersion produced in the example 3 has been compared with the dissolution rate of the pure NCX4016 in micronised form using the paddle method described in F.U.X., according to the following operating conditions T=37° C.±0.5° C., stirring rate: 150 rpm, dissolution means: 1% sodium lauryl sulphate solution, dissolution volume: 900 ml.
The quantity of NCX4016 released has been spectrophotometrically evaluated in continuous at a wavelength 232 nm.

[3] = Dissolution rate of NCX4016 under condition of supersaturation, paddle method, distilled water; details: after 5 minutes, from solid dispersion 2
Procedure: Three samples of microspheres have been exactly weighed so as to have a content of nitroaspirine of 30 mg. This quantity corresponds to about 4 times the solubility in water of the active principle.
The dissolution rate of the active principle from the above mentioned 3 solid dispersions has been compared with the dissolution rate of the pure active principle in micronized form, with the paddle method, described in F.U.X. using the following conditions:
dissolution means: distilled water
stirring rate: 100 r.p.m.
The quantity of NCX 4016 released has been evaluated spectrophotometrically in continuous at a wavelength 232 nm.
The samples have been taken by means of a peristaltic pump at 5 minutes intervals and for the total time of one hour.

Row | Structure (SMILES) | solubilisation [1] | percentage of active principle dissolved ([2]; 5 minutes) | percentage of active principle dissolved ([2]; 10 minutes) | percentage of active principle dissolved ([2]; 15 minutes) | percentage of active principle dissolved ([2]; 20 minutes) | percentage of active principle dissolved ([2]; 25 minutes) | percentage of active principle dissolved ([2]; 30 minutes) | percentage of active principle dissolved ([2]; 35 minutes) | percentage of active principle dissolved ([2]; 40 minutes) | percentage of active principle dissolved ([2]; 45 minutes) | percentage of active principle dissolved ([2]; 50 minutes) | percentage of active principle dissolved ([2]; 55 minutes) | percentage of active principle dissolved ([2]; 60 minutes) | quantity dissolved relative to the solubility of the active ingredient in the dissolution means [3]
1 | C[C@]12CCC(=O)C=C1CC[C@@H]1[C@@H]2[C@@H](O)C[C@@]2(C)[C@H]1CC[C@]2(O)C(=O)COC(=O)c1ccc(CO[N+](=O)[O-])cc1 [NCX 1022, hydroxycortisone 21-[(4′-nitroxymethyl)benzoate]] | 4.3% |  |  |  |  |  |  |  |  |  |  |  |  | 
2 | CC(=O)Oc1ccccc1C(=O)Oc1cccc(CO[N+](=O)[O-])c1 [NCX4016 micronized, 3-(nitroxymethyl)phenyl Ester of 2-acetoxybenzoic Acid] |  | 17.9% | 39.2% | 53.5% | 60.7% | 71.4% | 77% | 80.9% | 84.4% | 87% | 88.9% | 90.6% | 91.4% | about twice
